Columns and labels:
[1] = tested on: Non-alcoholic steatohepatitis model mice (C57BL/6NASH mice); assay: ALT value in plasma (Test Example 3); format: in vivo; settings: group R: feed with 0.4 mass % of resveratrol; week 0 to week 4; vs control group
Source text: (§1) Non-alcoholic steatohepatitis model mice (Japan Charles River Co., Ltd., C57BL/6NASH mice, male) were purchased at the age of six weeks, acclimated for two days, and reared six per cage. The mice were reared in a constant temperature/constant humidity room maintained on a 12-hour light-dark cycle (light: 8 a.m. to 8 p.m.). After the acclimation phase, the feeds shown below were fed ad libitum in accordance with the test group. • Control group (group C): control feed not blended with test substance • Resveratrol group (group R): feed blended with 0.4 mass % of resveratrol (Tokyo Chemical Industry Co., Ltd.) • ARs high dose group (group AH): feed blended with 0.9 mass % of ARs • ARs low dose group (group AL): feed blended with 0.3 mass % of ARs The body weight was measured once a day during the test phase. Blood samples were also drawn once a week. Blood was drawn from the caudal vein of the mice, and plasma was obtained. The plasma was stored at −80° C. until being used in measurement. Also, after the body weight was measured on the final day of the test, blood was drawn under anesthesia by diethyl ether. The liver was removed immediately after sacrifice, weighed, and frozen by dry ice. […] The aspartate aminotransferase (AST) value and alanine aminotransferase (ALT) value in the plasma, which are general indicators of liver function, were measured. […]

[2] = tested on: intracellular mitochondria number of liver tissue; assay: Intracellular mitochondria number of liver tissue, weight ratio of mitochondrial DNA to genomic DNA (Test Example 8); format: in vivo, mice; settings: group R: feed with 0.4 mass % of resveratrol; vs control group
Method: In this test example, the intracellular mitochondria number of the liver tissue was examined. Specifically, the intracellular mitochondria number of the liver tissue was evaluated by comparing the weight ratio of mitochondrial DNA to genomic DNA, measured by quantitative PCR as follows. DNA was extracted from liver tissue using a “NucleoSpin (registered trademark) Tissue kit (manufactured by Takara Bio Inc.)” according to the company's instructions. Each DNA copy number was quantified using a “Mouse Feeder Cell Quantification Kit (manufactured by Takara Bio Inc.)” according to the company's instructions. Primers having the following sequences were used. The PCR reaction was carried out under the following conditions. (95° C.,30 seconds→95° C.,5 seconds→60° C.,30 seconds)×40 cycles→95° C.,60 seconds For the weight ratio of measured mitochondrial DNA to genomic DNA, the relative values of each group were compared, taking the control group (group C) as 100%.

[3] = tested on: Non-alcoholic steatohepatitis model mice (C57BL/6NASH mice); assay: AST value in plasma (Test Example 3); format: in vivo; settings: group R: feed with 0.4 mass % of resveratrol; week 0 to week 4; vs control group
Source text: as §1

[4] = tested on: Non-alcoholic steatohepatitis model mice (C57BL/6NASH mice); assay: Triglyceride level in liver tissue (Test Example 4); format: in vivo; settings: group R: feed with 0.4 mass % of resveratrol; control group 130 mg/g
Source text: Non-alcoholic steatohepatitis model mice (Japan Charles River Co., Ltd., C57BL/6NASH mice, male) were purchased at the age of six weeks, acclimated for two days, and reared six per cage. The mice were reared in a constant temperature/constant humidity room maintained on a 12-hour light-dark cycle (light: 8 a.m. to 8 p.m.). After the acclimation phase, the feeds shown below were fed ad libitum in accordance with the test group. • Control group (group C): control feed not blended with test substance • Resveratrol group (group R): feed blended with 0.4 mass % of resveratrol (Tokyo Chemical Industry Co., Ltd.) • ARs high dose group (group AH): feed blended with 0.9 mass % of ARs • ARs low dose group (group AL): feed blended with 0.3 mass % of ARs The body weight was measured once a day during the test phase. Blood samples were also drawn once a week. Blood was drawn from the caudal vein of the mice, and plasma was obtained. The plasma was stored at −80° C. until being used in measurement. Also, after the body weight was measured on the final day of the test, blood was drawn under anesthesia by diethyl ether. The liver was removed immediately after sacrifice, weighed, and frozen by dry ice. […] A quantity of 0.5 mL of normal saline was added to the recovered supernatant and mixed for several seconds. […] The resultant mixture served as a sample, and the triglyceride level was measured. […]

[5] = tested on: Non-alcoholic steatohepatitis model mice (C57BL/6NASH mice); assay: Pathology evaluation of liver tissue by HE stain (Test Example 5); format: in vivo; settings: group R: feed with 0.4 mass % of resveratrol; vs control group
Source text: Non-alcoholic steatohepatitis model mice (Japan Charles River Co., Ltd., C57BL/6NASH mice, male) were purchased at the age of six weeks, acclimated for two days, and reared six per cage. The mice were reared in a constant temperature/constant humidity room maintained on a 12-hour light-dark cycle (light: 8 a.m. to 8 p.m.). After the acclimation phase, the feeds shown below were fed ad libitum in accordance with the test group. • Control group (group C): control feed not blended with test substance • Resveratrol group (group R): feed blended with 0.4 mass % of resveratrol (Tokyo Chemical Industry Co., Ltd.) • ARs high dose group (group AH): feed blended with 0.9 mass % of ARs • ARs low dose group (group AL): feed blended with 0.3 mass % of ARs The body weight was measured once a day during the test phase. Blood samples were also drawn once a week. Blood was drawn from the caudal vein of the mice, and plasma was obtained. The plasma was stored at −80° C. until being used in measurement. Also, after the body weight was measured on the final day of the test, blood was drawn under anesthesia by diethyl ether. The liver was removed immediately after sacrifice, weighed, and frozen by dry ice. The liver was divided into halves, and each was placed in a 1.5 mL tube and frozen at −80° C. Frozen liver tissue was embedded in paraffin and sliced. […]

[6] = tested on: Non-alcoholic steatohepatitis model mice (C57BL/6NASH mice); assay: Weight gain in hepatitis model mice (Test Example 2); format: in vivo; settings: Resveratrol group (group R): feed blended with 0.4 mass % of resveratrol, ad libitum

Compound: Oc1ccc(C=Cc2cc(O)cc(O)c2)cc1 [resveratrol]
- changes in ALT value in plasma [1]: the changes were almost the same as the control group
- intracellular mitochondria number of liver tissue (weight ratio of mitochondrial DNA to genomic DNA) [2]: no changes in intracellular mitochondria number were seen
- changes in AST value in plasma [3]: the changes were almost the same as the control group
- triglyceride level in liver tissue [4]: could not be corrected
- blank spaces derived from fat droplets in HE stained liver tissue [5]: virtually no effect was seen
- weight gain during the test phase [6]: weight gain suppression in the hepatitis model mice could not be improved

Source: US20220323372A1, “COMPOSITION FOR IMPROVING LIVER FUNCTION” (NITTO FUJI FLOUR MILLING CO., LTD., priority 2019, published 2022)
